From patent US11492335B2, “Aryl or heteroaryl triazolone derivatives or salts thereof, or pharmaceutical compositions comprising the same” (YUHAN CORPORATION, priority 2018, dated 2022)
Counter-ions that a name gives are not always drawn. Like-named read-outs stand apart in the source and are kept apart here.

How the values were obtained:
Assay type in all cases: biochemical
[1] = target: T1, recombinant human VAP-1 (Homo sapiens, UniProt Q16853); assay: Activity on recombinant human VAP-1, Amplex Red HRP-coupled hydrogen peroxide assay, benzylamine substrate; conditions: recombinant human VAP-1, benzylamine substrate, read-out: Inhibitory Activity (IC50, nM) human VAP-1
T1 construct: purchased R&D systems
T1 sequence (Q16853 1-763): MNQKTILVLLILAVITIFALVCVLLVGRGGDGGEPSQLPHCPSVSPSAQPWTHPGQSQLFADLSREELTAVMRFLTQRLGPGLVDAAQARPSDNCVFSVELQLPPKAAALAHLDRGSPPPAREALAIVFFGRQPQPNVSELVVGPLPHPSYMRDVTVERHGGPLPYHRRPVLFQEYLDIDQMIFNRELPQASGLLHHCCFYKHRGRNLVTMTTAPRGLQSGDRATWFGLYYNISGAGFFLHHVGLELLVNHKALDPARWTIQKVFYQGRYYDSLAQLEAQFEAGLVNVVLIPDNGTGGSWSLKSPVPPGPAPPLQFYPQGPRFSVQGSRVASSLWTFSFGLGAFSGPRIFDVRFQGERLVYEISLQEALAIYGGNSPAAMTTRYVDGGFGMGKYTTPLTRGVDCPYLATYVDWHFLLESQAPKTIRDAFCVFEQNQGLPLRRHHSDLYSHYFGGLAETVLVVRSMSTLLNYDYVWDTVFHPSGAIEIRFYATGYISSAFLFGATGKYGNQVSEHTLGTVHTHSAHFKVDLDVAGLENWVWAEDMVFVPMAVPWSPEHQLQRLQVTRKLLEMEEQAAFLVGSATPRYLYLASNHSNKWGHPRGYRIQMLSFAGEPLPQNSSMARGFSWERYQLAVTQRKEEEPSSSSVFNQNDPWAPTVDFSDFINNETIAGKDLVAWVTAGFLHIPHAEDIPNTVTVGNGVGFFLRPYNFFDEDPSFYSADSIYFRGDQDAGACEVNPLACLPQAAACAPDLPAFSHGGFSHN
Outline: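 Compounds were preincubated with purified enzyme in 50 mM sodium phosphate pH 7.4 at 37 °C for 30 min, then 200 uM Amplex Red, 1 mM benzylamine and 1 U/mL HRP were added. Resorufin fluorescence (ex 544/em 590 nm) was followed over 1-2 h; IC50 came from 4-parameter fits of signal-rate inhibition.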

[2] = target: T2, recombinant human MAO-A (monoamine oxidase-A) (Homo sapiens, UniProt P21397); assay: Activity on recombinant human MAO-A, Amplex Red method, 0.5 mM tyramine substrate; conditions: read-out: Inhibitory Activity (IC50, nM) MAO-A
T2 construct: purchased Sigma-Aldrich
T2 sequence (P21397 1-527): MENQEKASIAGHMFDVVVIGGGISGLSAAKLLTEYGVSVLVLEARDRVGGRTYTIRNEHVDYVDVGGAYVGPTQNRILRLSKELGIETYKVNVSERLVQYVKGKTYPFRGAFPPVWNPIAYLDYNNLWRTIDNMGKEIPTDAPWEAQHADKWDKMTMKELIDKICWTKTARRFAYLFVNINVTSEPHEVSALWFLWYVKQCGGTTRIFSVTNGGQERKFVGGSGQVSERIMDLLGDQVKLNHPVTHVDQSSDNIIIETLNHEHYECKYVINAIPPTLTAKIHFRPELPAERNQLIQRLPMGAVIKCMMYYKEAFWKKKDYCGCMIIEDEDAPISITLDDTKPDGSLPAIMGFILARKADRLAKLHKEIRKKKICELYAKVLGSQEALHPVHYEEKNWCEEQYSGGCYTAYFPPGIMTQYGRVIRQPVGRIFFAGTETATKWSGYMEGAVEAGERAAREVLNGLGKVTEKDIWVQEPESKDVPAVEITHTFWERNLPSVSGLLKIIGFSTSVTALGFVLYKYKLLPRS
Description: The compounds according to the present technology were evaluated in terms of activity on recombinant human VAP-1 (R&D systems) by measuring the level of hydrogen peroxide in horseradish peroxidase (HRP)-coupled reaction using Amplex Red Hydrogen Peroxide Assay Kit (Molecular Probes, Invitrogen, USA). The experiment was carried out at room temperature using benzylamine as a substrate. In the HRP-coupled reaction, hydrogen peroxide oxidation of 10-acetyl-3,7-dihydroxyphenoxazine (Amplex Red reagent) produces resorufin, which is a highly fluorescent compound. Briefly, the test compound was dissolved in dimethyl sulfoxide (DMSO) at a concentration of 20 mM. The dose-response assessment was made by 1:3 serial dilution in DMSO, thereby creating an 8 point curve. The concentration of the upper part was controlled according to the efficacy of the compounds, followed by dilution with a reaction buffer solution to obtain a final DMSO concentration less than 1%. To each well of a 96 black well plate, human VAP-1 purified in 50 mM sodium phosphate buffer solution (pH7.4) was added. The test compounds dissolved in DMSO were incubated with the human VAP-1 enzymes at 37° C. for 30 minutes. After 30-minute incubation, each well is added with a reaction mixture containing 200 uM Amplex Red reagent prepared from 50 mM sodium phosphate buffer solution (pH 7.4), 1 mM benzylamine, and 1 U/mL HRP. Fluorescence intensity was measured at several time points during 1-2 hours using a microplate reader (Flexstation3, Molecular Devices) under the wavelength condition exciting at 544 nm and reading the emission at 590 nm. The inhibitory effect of the compounds was measured as a decrease (%) in the signal rate as compared to the control group without any inhibitor (only diluted DMSO). Data was fixed to a logistic model with four variables and IC50 value was calculated using GraphPad Prism program.
In addition, the compounds according to the present technology were evaluated in terms of activity on a recombinant human MAO-A (monoamine oxidase-A, Sigma-Aldrich) and a recombinant human MAO-B (monoamine oxidase-B, Sigma-Aldrich) by using as substrates, 0.5 mM tyramine and 1 mM benzylamine, respectively, with a method similar to the activity evaluation method for recombinant human VAP-1. The compounds according to the present technology were also evaluated in terms of activity on a recombinant human DAO (diamine oxidase, R&D systems) by using as a substrate 1 mM putrescine with a method similar to the activity evaluation method for recombinant human VAP-1.

[3] = target: T3, recombinant human MAO-B (monoamine oxidase-B) (Homo sapiens, UniProt P27338); assay: Activity on recombinant human MAO-B, Amplex Red method, 1 mM benzylamine substrate; conditions: read-out: Inhibitory Activity (IC50, nM) MAO-B
T3 construct: purchased Sigma-Aldrich
T3 sequence (P27338 1-520): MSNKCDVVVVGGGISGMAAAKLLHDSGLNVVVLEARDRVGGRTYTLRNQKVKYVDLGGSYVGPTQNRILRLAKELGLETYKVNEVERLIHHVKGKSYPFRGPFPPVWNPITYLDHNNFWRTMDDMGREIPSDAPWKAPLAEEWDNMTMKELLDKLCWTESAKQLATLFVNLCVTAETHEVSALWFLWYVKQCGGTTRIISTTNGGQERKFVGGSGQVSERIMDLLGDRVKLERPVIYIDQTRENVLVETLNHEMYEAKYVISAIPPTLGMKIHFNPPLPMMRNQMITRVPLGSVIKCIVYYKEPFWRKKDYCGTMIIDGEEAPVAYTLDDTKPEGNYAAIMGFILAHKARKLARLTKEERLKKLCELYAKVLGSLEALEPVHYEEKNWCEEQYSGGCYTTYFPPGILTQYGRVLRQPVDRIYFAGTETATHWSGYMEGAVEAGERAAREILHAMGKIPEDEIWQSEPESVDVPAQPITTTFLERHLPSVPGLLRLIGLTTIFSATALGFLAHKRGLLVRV
Outline: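 8-point, 1:3 dose-response, four-parameter logistic IC50 from reduction in fluorescence rate versus DMSO control. HRP/Amplex Red detection of H2O2 (ex 544, em 590 nm) after 30 min, 37 °C compound–enzyme preincubation in pH 7.4 phosphate buffer. MAO-A substrate: 0.5 mM tyramine; MAO-B: 1 mM benzylamine.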

[4] = target: T4, recombinant human DAO (diamine oxidase) (Homo sapiens, UniProt P19801); assay: Activity on recombinant human DAO, Amplex Red method, 1 mM putrescine substrate; conditions: recombinant human DAO, read-out: Inhibitory Activity (IC50, nM) DAO
T4 construct: purchased R&D systems
T4 sequence (P19801 20-751): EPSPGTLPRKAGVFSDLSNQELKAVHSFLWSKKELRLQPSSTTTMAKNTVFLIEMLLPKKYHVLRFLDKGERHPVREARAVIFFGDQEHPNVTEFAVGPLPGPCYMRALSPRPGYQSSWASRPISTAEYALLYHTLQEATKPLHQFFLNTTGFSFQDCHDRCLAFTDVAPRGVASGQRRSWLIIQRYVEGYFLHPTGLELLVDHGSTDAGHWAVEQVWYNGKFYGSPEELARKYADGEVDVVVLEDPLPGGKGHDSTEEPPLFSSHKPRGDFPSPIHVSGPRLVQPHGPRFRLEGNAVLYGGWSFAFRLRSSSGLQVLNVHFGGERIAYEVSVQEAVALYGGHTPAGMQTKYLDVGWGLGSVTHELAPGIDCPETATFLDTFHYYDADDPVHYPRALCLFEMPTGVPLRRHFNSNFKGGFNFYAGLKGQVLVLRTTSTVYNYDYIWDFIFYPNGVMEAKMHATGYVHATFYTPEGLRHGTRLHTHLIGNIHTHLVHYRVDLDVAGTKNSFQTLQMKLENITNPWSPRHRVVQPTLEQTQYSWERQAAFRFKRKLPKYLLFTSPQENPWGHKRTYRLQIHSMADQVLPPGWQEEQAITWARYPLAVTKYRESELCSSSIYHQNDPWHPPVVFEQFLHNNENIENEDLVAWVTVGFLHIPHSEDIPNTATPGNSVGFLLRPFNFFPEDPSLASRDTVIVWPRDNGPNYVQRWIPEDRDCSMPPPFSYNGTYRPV
Outline: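 Inhibition of recombinant human DAO (diamine oxidase, R&D systems) was assessed with the Amplex Red Hydrogen Peroxide Assay Kit. Hydrogen peroxide produced from 1 mM putrescine was detected through an HRP-coupled reaction that converts Amplex Red into fluorescent resorufin, read at 544 nm excitation and 590 nm emission. IC50 values came from four-parameter logistic fits in GraphPad Prism.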

[5] = 1 mM putrescine, * = between 10 and 100 nM, ** = between 300 and 1000 nM

Row | Compound | IC50 ([1]; 30 min preincubation at 37° C.) [nM] | IC50 ([2]; 0.5 mM tyramine) [nM] | IC50 ([3]; 1 mM benzylamine) [nM] | IC50 [4, 5] [nM] | IC50 [1] [nM] | IC50 ([2]; 0.5 mM tyramine substrate) [nM] | IC50 ([3]; 1 mM benzylamine substrate) [nM] | IC50 ([4]; 1 mM putrescine substrate) [nM]
1 | NC/C(=C\F)Cn1ncn(-c2ccc(Br)cn2)c1=O [Example 30, 2-[(2E)-2-(aminomethyl)-3-fluoroprop-2-en-1-yl]-4-(5-bromopyridin-2-yl)-2,4-dihydro-3H-1,2,4-triazol-3-one hydrochloride] | 0.61 | 1900 | 1700 | 13 | – | – | – | –
2 | NC/C(=C\F)Cn1ncn(-c2cccc(Br)c2)c1=O [Example 4, 2-[(2E)-2-(aminomethyl)-3-fluoroprop-2-en-1-yl]-4-(3-bromophenyl)-2,4-dihydro-3H-1,2,4-triazol-3-one hydrochloride] | 1.2 | > 100000 | 175 | 90 | – | – | – | –
3 | NC/C(=C\F)Cn1ncn(-c2cccc(-c3cccc4[nH]ccc34)c2)c1=O [Example 98, 2-[(2E)-2-(aminomethyl)-3-fluoroprop-2-en-1-yl]-4-[3-(1H-indol-4-yl)phenyl]-2,4-dihydro-3H-1,2,4-triazol-3-one hydrochloride] | 4.7 | 76400 | 9320 | 68 | – | – | – | –
4 | NC/C(=C\F)Cn1ncn(-c2cccc(/C=C/c3cnc4c(c3)NC(=O)CO4)n2)c1=O [Example 241, 7-[(E)-2-[6-[1-[(E)-2-(aminomethyl)-3-fluoro-allyl]-5-oxo-1,2,4-triazol-4-yl]-2-pyridyl]vinyl]-1H-pyrido[2,3-b][1,4]oxazin-2-one hydrochloride] | – | – | – | – | 0.5 | > 100000 | > 10000 | 1
5 | NC/C(=C\F)Cn1ncn(-c2cccc(-c3cccc(-c4ncon4)c3)c2)c1=O [Example 62, 2-[(2E)-2-(aminomethyl)-3-fluoroprop-2-en-1-yl]-4-[3′-(1,2,4-oxadiazol-3-yl)biphenyl-3-yl]-2,4-dihydro-3H-1,2,4-triazol-3-one] | 0.53 | > 100000 | 117 | < 100 | – | – | – | –
6 | Cc1cc(-n2cnn(C/C(=C\F)CN)c2=O)ccc1Br [Example 15, 2-[(2Z)-2-(aminomethyl)-3-fluoroprop-2-en-1-yl]-4-(4-bromo-3-methylphenyl)-2,4-dihydro-3H-1,2,4-triazol-3-one] | 2.2 | 710 | 9.8 | 85 | – | – | – | –
7 | NC/C(=C\F)Cn1ncn(-c2cccc(-c3cccc4c3oc3ccccc34)n2)c1=O [Example 203, 2-[(2E)-2-(aminomethyl)-3-fluoroprop-2-en-1-yl]-4-[6-(dibenzo[b,d]furan-4-yl)pyridin-2-yl]-2,4-dihydro-3H-1,2,4-triazol-3-one hydrochloride] | – | – | – | – | 1.8 | 12000 | 73 | 3
8 | Cc1cc(-c2cccc(-n3cnn(C/C(=C/F)CN)c3=O)n2)cnc1F [Example 190, 2-[(2E)-2-(aminomethyl)-3-fluoroprop-2-en-1-yl]-4-(6′-fluoro-5′-methyl-2,3′-bipyridin-6-yl)-2,4-dihydro-3H-1,2,4-triazol-3-one hydrochloride] | – | – | – | – | 0.6 | > 100000 | 190 | 5
